From patent US8580940B2, “Photoporphyrinogen oxidase having activity of imparting resistance against acifluorfen and gene thereof” (Nippon Soda Co., Ltd., priority 2005, dated 2013)

How the values were obtained:
[1] = system: AT strain (transgenic Synechocystis strain expressing Arabidopsis-derived protoporphyrinogen oxidase); assay: microbe, parasite or virus in culture; type: cell-based, Synechocystis PCC6803; conditions: for IC50: Synechocystis, 144 h, read-out: pI50 Value AT strain
Protocol: (§1) The AT strain obtained in Example 1 and ATΔslr1790 strain, in which slr1790 gene was disrupted by the method described in Example 4, were used. Aforedescribed BG11 liquid medium was employed. With a view to preventing reverse mutation or loss of the gene, either chloramphenicol or kanamycin was added to the medium at a final concentration of 25 μM for the AT strain and ATΔslr1790 strain, respectively, because a chloramphenicol resistance gene is introduced with protoporphyrinogen oxidase into AT strain and a kanamycin resistance gene is introduced into ATΔslr1790 strain when disrupting the gene. AT strain and ATΔslr1790 strain were precultured with shaking in BG11 liquid medium, collected during the growth phase, and suspended in fresh BG11 liquid medium supplemented with an antibiotic so that A730 became 0.1, which was used for investigation.
(§2) An active pharmaceutical ingredient of a test chemical was dissolved in DMSO and added to wells so that final concentration of agent became from 1.0×10^−4 M to 1.0×10^−9.5 M for each well (the final concentration of DMSO is 0.5%). The test includes shaking culture using a 96-well plate in a scale of 100 μl in each well at 30° C. of incubation temperature under 1000 lux of light intensity. Turbidity was measured 6 days after the start of the test and compared with solvent sample to calculate pI50 value. pI50 value=−log(concentration to inhibit 50% activity(M)) (Activity of Herbicidal Treatment)

[2] = system: ATΔslr1790 strain (AT strain in which slr1790 gene was disrupted); assay: Test for inhibitory potency of protoporphyrinogen oxidase inhibitor, growth (turbidity) of ATΔslr1790 strain; type: cell-based, Synechocystis PCC6803; conditions: turbidity 6 days after start, 30° C., 1000 lux, BG11 liquid medium, pI50 = -log(concentration to inhibit 50% activity (M)); for IC50: Synechocystis, 144 h
Protocol: as §1, §2

Amaranthus lividus = assay: Herbicidal activity, foliage treatment; type: in vivo; conditions: foliage spray, two weeks after the treatment, index 0-10
Protocol: Seeds of Amaranthus lividus were sowed on the surface of soil filled in a pot (200 cm^2) followed by covering with a little soil and then grown to 5 to 10 cm of plant length in a greenhouse. Each of water-diluted test chemical solutions was sprayed to foliage part of Amaranthus lividus with a small spray in an amount corresponding to the spray amount of 1000 litter/ha to achieve predetermined amount of agent. Cultivation was carried out in a greenhouse. Then herbicidal effect on Amaranthus lividus was examined two weeks after the treatment according to an examination criterion below.
Values 1, 3, 5, 7, and 9 indicate the intermediate value of […], 4 and 6, 6 and 8, and 8 and 10 respectively.

Arabidopsis wild type = assay: Acifluorfen resistance test, degree of necrosis on leaves, wild type; type: in vivo; conditions: acifluorfen 10 μM, 5 μl dropped onto leaves, 7 days after treatment, by eye on a 0 to 5 scale (5 complete death, 0 no effect)
Protocol: (§3) For transformants in which gene introduction was confirmed, acifluorfen resistance effect was tested. Acifluorfen was prepared as emulsion to contain 4% of effective component by mixing and solubilizing dimethylformamide and polyoxyethylene sorbitan surfactant. This was diluted with water to make the final concentration of acifluorfen 10 μM, 5 μl of which was dropped using a micropippet onto leaves of Arabidopsis wild type and transformed Arabidopsis slr lineage, in which gene introduction was confirmed, both grown to 1 to 2 cm in height in a growth chamber.
(§4) Study was continued until 7 days after the treatment with the chemicals and degree of necrosis was evaluated by eye (on a 0 to 5 scale, 0 means no effect).
(§5) Evaluation was done by eye on a 0 to 5 scale, with 5 meaning complete death and 0 meaning no effect.

[3] = system: transformed Arabidopsis slr lineage (slr1790-introduced); assay: Acifluorfen resistance test, degree of necrosis on leaves, slr1790-introduced transformants; type: in vivo; conditions: acifluorfen 10 μM, 5 μl dropped onto leaves, 7 days after treatment, by eye on a 0 to 5 scale (5 complete death, 0 no effect)
Protocol: as §3, §4, §5

Structure (SMILES) | IC50 [1] [µM] | IC50 [2] [M] | Herbicidal activity (foliage treatment) (herbicide index for Amaranthus lividus, 16 g ai/ha) (Amaranthus lividus) | degree of necrosis, Arabidopsis Wild Type (Arabidopsis wild type) | degree of necrosis, slr 52 ([3]; transformant slr 52) | degree of necrosis, slr 146 ([3]; transformant slr 146) | pI50 Value AT strain ([1]; turbidity 6 days after start, 30° C., 1000 lux, BG11 liquid medium, pI50 = -log(concentration to inhibit 50% activity (M))) | pI50 Value ATΔslr1790 strain [2]
O=C(O)c1cc(Oc2ccc(C(F)(F)F)cc2Cl)ccc1[N+](=O)[O-] [acifluorfen] | > 100 | 3.16e-05 | 7 | 4 | 1 | 1 |  | 
c1cc[n+]2c(c1)-c1cccc[n+]1CC2 [diquat] | 6.31 | 1e-05 |  |  |  |  |  | 
C#CCN1C(=O)COc2cc(F)c(N3C(=O)C4=C(CCCC4)C3=O)cc21 [flumioxazine] |  |  | 10 (100%) |  |  |  | 4> | 6.7
CCOC(=O)COc1cc(-c2nn(C)c(OC(F)F)c2Cl)c(F)cc1Cl [pyraflufenethyl, pyraflufen-ethyl] | > 100 | 2.51e-07 | 10 (100%) |  |  |  |  | 
